Earlier results in patent publication US12303597B2, “Naloxone formulations for sublingual and/or buccal administration” (Pharmaceutical Productions, Inc., priority 2019, dated 2025).
Where a name gives a salt, the structure may show the parent alone. Read-outs that look alike come from different tables or passages of the source.

Compound	solubility in water (hydrochloride)	solubility in water
C=CCN1CC[C@]23c4c5ccc(O)c4O[C@H]2C(=O)CC[C@@]3(O)[C@H]1C5 [Naloxone hydrochloride]	soluble in water	–
C=CCN1CC[C@]23c4c5ccc(O)c4O[C@H]2C(=O)CC[C@@]3(O)[C@H]1C5 [naloxone base, 17-allyl-4,5α-epoxy-3,14-dihydroxymorphinan-6-one]	–	insoluble in water
